Experimental findings from US20080300298A1, “Honokiol Derivates For the Treatment of Proliferative Disorders” (priority 2005, published 2008) are described below.

Assay type in all cases: cell-based, human
The subject of one assay is HIF-1a in PC3 cells. The assay can be described thus: HIF-1a induction. Particulars: normoxia or hypoxia. The protocol:
Bharti, A. C. et al (2004) Blood 103, 3175-3184; Arbiser, J. L et al (1998) Mol. Med. 4, 376-383; Woods, A. et al (2003) Current Biology 13, 2004-2008; Shaw, R. J. et al (2004) PNAS 101, 3329-3335; Buzzai, M. et al (2005) Oncogene 24, 4165-4173). […] PC3 cells were treated with honokiol in normoxia (left) or hypoxia (right). In both cases, HIF-1a induction is dose dependent, and in the case of hypoxia, at least additive.

Assay [1] deals with STAT-3, ERK and Akt phosphorylation in MM.1S cells. The assay can be described thus: Western blotting of IL-6 / IGF-1 growth signaling. Particulars: 10 ug/ml HNK for 3 and 6 h, then IL-6 (10 ng/ml) or IGF-1 (25 ng/ml). On the technique in general: Immunoblotting shows a protein as a band on a membrane.
Another assay concerns H1299 cells. Briefly: Invasion assay (Matrigel). The method, then: (A) RAW 264.7 cells (1×10^4) were plated overnight, pretreated with 5 mM honokiol for 12 h, and then treated with 5 nM RANKL. At 4 and 5 days later, cells were stained for TRAP and evaluated for osteoclastogenesis. Photographs were taken after 5 days of incubation with RANKL. (B) The numbers of TRAP-positive multinucleated osteoclasts (>3 nuclei) per well were counted. (C) H1299 cells (2.5×10^4) were seeded into the upper wells of a Matrigel invasion chamber overnight in the absence of serum, pretreated with […] honokiol for 12 h, treated with 1 nM TNF for 24 h in the presence of 1% serum, and then subjected to invasion assay. The value for no honokiol and no TNF was set to 1.0.
Invasion assay. The membrane invasion culture system was used to assess cell invasion because invasion through the extracellular matrix is a crucial step in tumor metastasis. […] The cells that invaded through the Matrigel (i.e., those that migrated to the lower chamber during incubation) were stained with […] calcein-AM (Molecular Probes) in PBS for 30 min at 37° C. and scanned for fluorescence with a Victor 3 multi-plate reader (Perkin Elmer Life and Analytical Sciences, Boston, Mass.); fluorescent cells were counted. […]

The subject of another assay is KBM-5 cells. The assay can be described thus: Live and dead assay. To be noted: KBM-5, TNF 1 nM with honokiol (10 mM printed); TNF alone 5%. The method, then: (D) depicts that honokiol enhances TNF-induced cell death.
Live and dead assay. The Live and Dead assay (Molecular Probes), which determines intracellular esterase activity and plasma membrane integrity, was used to measure apoptosis. […] It also uses the […] (red fluorescence), which can enter cells only through damaged membranes and bind to nucleic acids but is excluded by the intact plasma membrane of live cells. Briefly, 1×10^5 cells were incubated with […] honokiol for 24 h and then treated with 1 nM TNF for 16 h at 37° C. Cells were stained with the Live and Dead reagent (5 mM ethidium homodimer, 5 mM calcein-AM) and then incubated at 37° C. for 30 min. Cells were analyzed under a fluorescence microscope (Labophot-2, Nikon, Tokyo, Japan).
By using caspase-activated PARP cleavage, it was shown that the enhanced cytotoxicity was due to apoptosis. TNF-induced PARP cleavage was enhanced in the honokiol-treated cells (FIG. 26C).

The subject of assay [2] is caspases, PARP, AIF in MM.1S cells. Briefly: Western blotting of apoptotic pathway. To be noted: 10 ug/ml.

On to `C=CCc1ccc(O)c(-c2ccc(O)c(CC=C)c2)c1` [HNK, Honokiol], for which the HIF-1a induction entry with HIF-1a in PC3 cells was “activated HIF-1a in prostate cancer cells in a dose dependent manner”. Further, in assay [1], the “phosphorylation induced by IL-6 and IGF-1” value was “significantly reduced phosphorylation of STAT-3, ERK and Akt induced by IL-6, as well as ERK and Akt induced by IGF-1”. For the same compound, the “TNF-induced tumor cell invasion” value with H1299 cells (H1299, 10 mM (printed) honokiol 12 h, 1 nM TNF 24 h) is listed as “suppressed this activity”. For the same compound, the “invasion activity of honokiol alone” value with H1299 cells (H1299, no TNF) was “had no invasion activity”. Moreover, the “TNF-induced apoptosis (Live/Dead assay)” value in the assay with KBM-5 cells was found to be 65%. Also, in assay [2] (12 and 24 h), the “cleavage of caspases and PARP” value is “Cleavage of caspases 7, 8, 9 and PARP were induced”. Further, the “release of AIF” value in assay [2] (24 h) is “induced release of mitochondrial pro-apoptotic protein AIF to cytosol”.
